Results as given in patent publication US20250340551A1, “SMALL MOLECULE MODULATORS OF STAT6” (Gilead Sciences, Inc., priority 2024, published 2025).

What was measured:
[1] = tested on: Eotaxin-3 (CCL26) release in human whole blood stimulated with IL-4; experiment: Human whole blood eotaxin-3 assay (IL-4 stimulated, Eotaxin-3 release); format: cell-based
Outline: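 Lithium-heparin blood preincubated 2 h at 37° C with 4-fold compound dilutions (0.5% DMSO, triplicates), then stimulated with 400 pM recombinant human IL-4 for 48 h. Eotaxin-3 in plasma supernatant measured by MSD immunoassay.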

[2] = biological target: human STAT6 (Homo sapiens (Human), UniProt P42226); experiment: Surface plasmon resonance assay (Biacore 8K, binding to immobilized STAT6); conditions: human STAT6 aa122-658, N-terminal His-tag, CM5 chip, 25° C.; geometric mean; read-out: STAT6 SPR Kd
Outline: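 Run at 25° C with His-tagged STAT6 aa122-658 (insect-cell expressed) amine-coupled to a CM5 chip, reference-subtracted, in PBS-P+ with 2% DMSO. Multi-cycle kinetics: 60 sec. contact, up to 300 sec. dissociation. Affinity fitted from late report-point binding isotherms, with Rmax both free and fixed to theoretical 1:1.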

human STAT6, sequence (P42226 122-658): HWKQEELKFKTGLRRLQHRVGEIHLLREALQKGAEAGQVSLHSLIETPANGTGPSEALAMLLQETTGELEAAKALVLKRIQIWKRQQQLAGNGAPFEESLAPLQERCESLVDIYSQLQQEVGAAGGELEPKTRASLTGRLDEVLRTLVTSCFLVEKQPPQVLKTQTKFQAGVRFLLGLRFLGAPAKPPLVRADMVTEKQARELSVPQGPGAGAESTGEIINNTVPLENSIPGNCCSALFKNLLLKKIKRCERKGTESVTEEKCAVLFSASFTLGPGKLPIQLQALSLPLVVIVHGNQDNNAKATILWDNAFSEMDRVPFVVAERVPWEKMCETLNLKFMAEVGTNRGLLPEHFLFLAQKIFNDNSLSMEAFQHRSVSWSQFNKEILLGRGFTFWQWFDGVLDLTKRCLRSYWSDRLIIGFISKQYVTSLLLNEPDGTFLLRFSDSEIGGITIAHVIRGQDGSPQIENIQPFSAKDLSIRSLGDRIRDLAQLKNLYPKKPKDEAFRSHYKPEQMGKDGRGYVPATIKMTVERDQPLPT

EC50 ([1]; human whole blood, 400 pM recombinant human IL-4, 48 h, EC50 provided for compounds with >80% Emax, geometric mean) | Kd [2] | EC50 ([1]; Homo sapiens, Hec50, 48 h) | Compound | Emax ([1]; Homo sapiens, 48 h)
15700 nM | 20.1 nM | – | 4-[1-[[4-(6-Amino-2-methyl-3-pyridyl)-1-methyl-pyrrolo[2,3-b]pyridin-2-yl]methyl]-4-piperidyl]-N,N-dimethyl-benzamide [Example 1k12] | –
– | 31.4 nM | 2910 nM | Cc1cc(C(=O)N(C)C)ccc1C1CCN([C@H](C)c2cc3c(-c4ccc(N)cn4)ccnc3n2C)CC1 [Example 1af18, (R)-4-(1-(1-(4-(5-aminopyridin-2-yl)-1-methyl-1H-pyrrolo[2,3-b]pyridin-2-yl)ethyl)piperidin-4-yl)-N,N,3-trimethylbenzamide] | –
– | 33.8 nM | 958 nM | CNc1ccc(-c2ccnc3c2cc(CN2CC=C(c4ccc(C(=O)N(C)C)cc4C)CC2)n3C)cn1 [Example 1s8, N,N,3-Trimethyl-4-[1-[[1-methyl-4-[6-(methylamino)-3-pyridyl]pyrrolo[2,3-b]pyridin-2-yl]methyl]-3,6-dihydro-2H-pyridin-4-yl]benzamide] | –
– | 29.5 nM | 1110 nM | CNc1ccc(-c2ccnc3c2cc(CN2CCC(c4ccc(C(=O)N(C)C)cc4)CC2)n3S(C)(=O)=O)cn1 [Example 1x1, N,N-Dimethyl-4-[1-[[4-[6-(methylamino)-3-pyridyl]-1-methylsulfonyl-pyrrolo[2,3-b]pyridin-2-yl]methyl]-4-piperidyl]benzamide] | –
– | 22.1 nM | 2580 nM | CNc1ccc(-c2ccnc3c2cc(CN2CCC(c4ccc(C(=O)N(C)C)cc4F)CC2)n3C)cn1 [Example 1s30, 3-Fluoro-N,N-dimethyl-4-(1-((1-methyl-4-(6-(methylamino)pyridin-3-yl)-1H-pyrrolo[2,3-b]pyridin-2-yl)methyl)piperidin-4-yl)benzamide] | –
– | 28.9 nM | – | CNc1ccc(-c2ccnc3c2cc(CN2CCN(c4ccc(C(=O)N(C)C)cc4C)CC2)n3C)cn1 [Example 1s14, N,N,3-Trimethyl-4-[4-[[1-methyl-4-[6-(methylamino)-3-pyridyl]pyrrolo[2,3-b]pyridin-2-yl]methyl]piperazin-1-yl]benzamide] | 37.2%
– | 20 nM | 65.4 nM | [2H]C([2H])([2H])N(C(=O)c1ccc(C2=CCN([C@H](C)c3cc4c(-c5ccc(N)nc5C#N)ccnc4n3C)CC2)c(C)c1)C([2H])([2H])[2H] [Example 1af26, (R)-4-(1-(1-(4-(6-amino-2-cyanopyridin-3-yl)-1-methyl-1H-pyrrolo[2,3-b]pyridin-2-yl)ethyl)-1,2,3,6-tetrahydropyridin-4-yl)-3-methyl-N,N-bis(methyl-d3)benzamide] | –
– | 11.4 nM | 6000 nM | CN(C)C(=O)c1ccc(C2CCN(Cc3cc4c(-c5ccc(N)nc5)ccnc4n3C)CC2)cc1 [Example 1k3, 4-[1-[[4-(6-Amino-3-pyridyl)-1-methyl-pyrrolo[2,3-b]pyridin-2-yl]methyl]-4-piperidyl]-N,N-dimethyl-benzamide] | –
– | 32.4 nM | 458 nM | CNc1ccc(-c2ccnc3c2cc(CN2CC[C@@H](c4ccc(C(=O)N(C)C)cc4)C[C@H]2C)n3C)nc1 [Example 1o26, N,N-dimethyl-4-((2R,4R)-2-methyl-1-((1-methyl-4-(5-(methylamino)-pyridin-2-yl)-1H-pyrrolo[2,3-b]pyridin-2-yl)methyl)piperidin-4-yl)benzamide] | –
